Legend:
[1] = Ivermectin solubility determination in excipients
Method: The solubility assessments were performed by continually adding a known amount of the API into each individual excipient and letting the excipient reach solubility equilibrium via API saturation (visible solid observed). The experiments were conducted at ambient conditions (25° C.) and were left to mix on a stir plate at 500 RPM for at least 72 hours.

[2] = Excipient compatibility study at 40° C./75% RH (HPLC Assay/Related Substances); type: physicochemical; settings: for Chromatographic purity by HPLC (% area) / Total Impurities % (% adjusted area): 40° C./75% RH; for Total Impurities % (% adjusted area): excluding API impurities
Method: An excipient compatibility study was initiated with selected excipients ranging from oils to surfactants based on equilibrium solubility results (Table 2). […] After solutions were prepared using a hand-held homogenizer (Model IKAT10 Ultra-Turrax), each excipient sample was aliquoted in amber vials, approximately 10% water was added in each excipient aliquot, and bench scale gel stripe OET-004037 was also made and added in a separate set of aliquot samples at approximately 1:1 w/w.
All samples were stored at 40° C./75% relative humidity (RH) condition (Model: Lunaire environmental chamber) and tested by developmental reversed phase HPLC method for Assay/Related Substances at T=0, 2 weeks, and 1 month.

[3] = in Fractionated coconut oil, 10% water, T = 2 weeks
[4] = in Fractionated coconut oil, Control, T = 0
[5] = in Fractionated coconut oil, Control, T = 2 weeks
[6] = in Fractionated coconut oil, Gel Stripe (1:1 w/w), T = 2 weeks
[7] = in Labrasol ALF, 10% water, T = 1 months
[8] = in Labrasol ALF, 10% water, T = 2 weeks
[9] = in Labrasol ALF, Control, T = 0
[10] = in Labrasol ALF, Control, T = 1 months
[11] = in Labrasol ALF, Control, T = 2 weeks
[12] = in Labrasol ALF, Gel Stripe (1:1 w/w), T = 1 months
[13] = in Labrasol ALF, Gel Stripe (1:1 w/w), T = 2 weeks
[14] = in Maisine CC, 10% water, T = 1 months
[15] = in Maisine CC, 10% water, T = 2 weeks
[16] = in Maisine CC, Control, T = 1 months
[17] = in Maisine CC, Control, T = 2 weeks
[18] = in Maisine CC, Gel Stripe (1:1 w/w), T = 1 months
[19] = in Maisine CC, Gel Stripe (1:1 w/w), T = 2 weeks
[20] = in Masester E8120, 10% water, T = 1 months

## ivermectin
[1]; in Capryol 90, 25° C.
  Solubility: 150.92 mg/g
[1]; in Fractionated Coconut oil, 25° C.
  Solubility: 16.55 mg/g
[1]; in Glycerin, 25° C.
  Solubility: <0.1 mg/g
[1]; in Kolliphor EL, 25° C.
  Solubility: 95.85 mg/g
[1]; in Labrafil M 2125 CS, 25° C.
  Solubility: 35.32 mg/g
[1]; in Labrasol ALF, 25° C.
  Solubility: 126.36 mg/g
[1]; in LauroglycolTM FCC, 25° C.
  Solubility: 71.96 mg/g
[1]; in Maisine CC, 25° C.
  Solubility: 60.17 mg/g
[1]; in Masester E8120, 25° C.
  Solubility: 164.06 mg/g
[1]; in Medium Chain Triglyceride, 25° C.
  Solubility: 16.49 mg/g
[1]; in Oleic acid, 25° C.
  Solubility: 48.58 mg/g
[1]; in Olive oil, 25° C.
  Solubility: 4.71 mg/g
[1]; in PEG 400, 25° C.
  Solubility: 112.92 mg/g
[1]; in Propylene glycol, 25° C.
  Solubility: 25.61 mg/g
[1]; in Soybean oil, 25° C.
  Solubility: 6.72 mg/g
[1]; in Span 20, 25° C.
  Solubility: 97.66 mg/g
[1]; in Span 80, 25° C.
  Solubility: 54.04 mg/g
[1]; in Triacetin, 25° C.
  Solubility: 58.75 mg/g
[1]; in Tween 80, 25° C.
  Solubility: 88.26 mg/g
[1]; in Vitamin E TPGS, table title 25° C., text b171: conducted at 40° C.
  Solubility: 82.98 mg/g
[2]; PEG 400 as co-solvent
  chemical compatibility with the API: poor chemical compatibility
[2]; Tween 80
  chemical compatibility with the API: less stability over time
[2]; Vitamin E TPGS, compared with Tween 80 and Labrasol ALF
  chemical compatibility with the API: best chemical compatibility
[2]; [3]
  Chromatographic purity by HPLC (% area): 97.83 % area
  Total Impurities % (% adjusted area): <LOQ
[2]; [4]
  Chromatographic purity by HPLC (% area): 95.61 % area
  Total Impurities % (% adjusted area): <LOQ
[2]; [5]
  Chromatographic purity by HPLC (% area): 97.94 % area
  Total Impurities % (% adjusted area): <LOQ
[2]; [6]
  Chromatographic purity by HPLC (% area): 94.42 % area
  Total Impurities % (% adjusted area): 3.28 % adjusted area
[2]; [7]
  Chromatographic purity by HPLC (% area): 89.91 % area
  Total Impurities % (% adjusted area): 8.76 % adjusted area
[2]; [8]
  Chromatographic purity by HPLC (% area): 93.91 % area
  Total Impurities % (% adjusted area): 3.46 % adjusted area
[2]; [9]
  Chromatographic purity by HPLC (% area): 97.74 % area
  Total Impurities % (% adjusted area): <LOQ
[2]; [10]
  Chromatographic purity by HPLC (% area): 81.35 % area
  Total Impurities % (% adjusted area): 20.49 % adjusted area
[2]; [11]
  Chromatographic purity by HPLC (% area): 89.16 % area
  Total Impurities % (% adjusted area): 8.67 % adjusted area
[2]; [12]
  Chromatographic purity by HPLC (% area): 96.49 % area
  Total Impurities % (% adjusted area): 1.06 % adjusted area
[2]; [13]
  Chromatographic purity by HPLC (% area): 97.11 % area
  Total Impurities % (% adjusted area): 0.30 % adjusted area
[2]; [14]
  Chromatographic purity by HPLC (% area): 96.83 % area
  Total Impurities % (% adjusted area): 0.69 % adjusted area
[2]; [15]
  Chromatographic purity by HPLC (% area): 95.90 % area
  Total Impurities % (% adjusted area): 0.45 % adjusted area
[2]; in Maisine CC, Control, T = 0
  Chromatographic purity by HPLC (% area): 97.13 % area
  Total Impurities % (% adjusted area): 0.58 % adjusted area
[2]; [16]
  Chromatographic purity by HPLC (% area): 96.82 % area
  Total Impurities % (% adjusted area): 0.71 % adjusted area
[2]; [17]
  Chromatographic purity by HPLC (% area): 96.00 % area
  Total Impurities % (% adjusted area): 0.35 % adjusted area
[2]; [18]
  Chromatographic purity by HPLC (% area): 96.94 % area
  Total Impurities % (% adjusted area): 0.58 % adjusted area
[2]; [19]
  Chromatographic purity by HPLC (% area): 96.15 % area
  Total Impurities % (% adjusted area): 0.33 % adjusted area
[2]; [20]
  Chromatographic purity by HPLC (% area): 91.68 % area
  Total Impurities % (% adjusted area): 6.60 % adjusted area
[2]; in Masester E8120, 10% water, T = 2 weeks
  Chromatographic purity by HPLC (% area): 95.11 % area
